Source: patent US20230372272A1, “USE OF CYSTINE AND DERIVATIVES THEREOF AS ANTI-THROMBOTIC AND THROMBOLYTIC AGENTS” (Georgia Tech Research Corporation, priority 2020, published 2023)

How the values were obtained:
[1] = test system: fibrin clots from recalcified citrated whole blood; experiment: Red clot lysis under stagnant conditions, whole blood clots; format: cell-based, Porcine; conditions: whole blood clot, 48 h; DiNAC and NAC at 2 mM
Excerpt: (§1) Blood Collection: Porcine blood was collected at a local abattoir immediately following slaughter into 3.5 U/mL heparin (Thermo Fisher Scientific, Waltham, MA) or 3.2% sodium citrate (Sigma-Aldrich, St. Louis, MO). Whole blood was gently agitated using an Orbit LS shaker (Laboratory Supply Network, Atkinson, NH) until perfusion and used in experiments as soon as possible the same day as collection.
(§2) Red clot formation and lysis: Platelet rich plasma (PRP) was made by separating citrated whole blood via gravity over a 2 h period and collecting the supernatant. Separation via gravity was employed instead of centrifugation to avoid platelet damage and activation. Citrated whole blood or PRP was then recalcified with CaCl2 to a final [Ca^2+] of 10 mM (Griffin, M. T., Kim, D. & Ku, D. N. Shear-induced platelet aggregation: 3D-grayscale microfluidics for repeatable and localized occlusive thrombosis. Biomicrofluidics 13, 2019), and 200 μl was transferred into 500 μal centrifuge tubes and allowed to clot and retract for 30 min. The clot was then incubated with 100 μl of either agent or control solution. The treatment solution was exchanged by removing the top 100 μl and replacement with fresh solution at 3, 6, 12, 24, and 48 h of incubation. The weight of the tube was measured immediately post-clot formation and at each timepoint after removal of old solution and prior to the replacement with fresh solution.

[2] = test system: platelet-rich thrombi from heparinized human whole blood; experiment: Example 4: thrombolysis of human blood thrombi in 3 mm collagen-coated stenotic capillary tubes; format: cell-based; conditions: human whole blood thrombus
Description: In this example, an in-vitro randomized trial was performed using heparinized human blood in collagen-coated glass capillary tubes with a designed stenosis, mimicking arterial disease. Heparinized human blood was then infused through 3 mm capillary tubes at a constant flow rate, during which near-occlusive thrombi were formed at the region of stenosis (FIG. 11). DiNAC was then infused at a constant flow rate through the capillary tubes in order to observe thrombolytic activity, using a combination of live pressure monitoring and microscopic image capture. All infusions were control-matched with a phosphate-buffered saline solution in lieu of DiNAC.

[3] = test system: VWF- and platelet-rich white thrombi; experiment: Lysis of platelet-rich white thrombi in collagen-coated stenotic capillary tube under arterial shear (perfusion of lytic agents); format: cell-based, Porcine
Description: Collagen Coating: The stenotic glass test sections (inner diameter=1.5 mm) described herein were made by the Chemistry and Biochemistry Glass Shop at Georgia Institute of Technology. The % stenosis by diameter reduction ranged from 60% to 80%. Fibrillar equine collagen (type I; Chrono-Log Corporation, Havertown, PA) was diluted 9:1 in NaCl (Sigma-Aldrich, St. Louis, MO) and incubated in the test section at the stenosis for 24 h in a warm, moist environment (Para, A., Bark, D., Lin, A. & Ku, D. Rapid platelet accumulation leading to thrombotic occlusion. Ann Biomed Eng 39, 1961-1971, 2011; Para, A. N. & Ku, D. N. A low-volume, single pass in-vitro system of high shear thrombosis in a stenosis. Thromb Res 131, 418-424, 2013).
as §1
Syringe Perfusion: Lightly heparinized whole blood was perfused through the stenotic test section using a syringe pump. The flow rate was set so that the initial wall shear rate in the stenosis was 3,500 s^−1. A pressure transducer was connected in-line upstream of the stenosis (FIG. 2A). A dissecting microscope with a camera (PCO-Tech Incorporated, Romulus, MI) was used to capture images in real-time during perfusion. Blood perfusion continued until the upstream pressure increased by 30 mmHg (equivalent to an arterial pressure head in vivo) as a result of platelet thrombus formation in the stenotic section. Perfusion with a syringe pump (constant flow rate over constant pressure head) ensured that the thrombi were never fully occlusive, allowing subsequent perfusion for the induction of lysis.
(§3) Pharmacologic Agents: Recombinant human tPA (Sigma-Aldrich, St. Louis, MO), recombinant human ADAMTS-13 (MyBiosource, San Diego, CA), abciximab (ReoPro was kindly provided by Dr. Kevin Maher at Emory/CHOA), NAC (Thermo Fisher Scientific, Waltham, MA), and DiNAC (Cayman Chemical, Ann Arbor, Ml) or control (PBS) treatments were perfused for an hour at a flow rate of 1 ml/min. Agent solutions were made by dissolution or dilution in PBS. The in vitro flow system setup and image acquisition are shown in FIG. 2, and the concentrations of each agent are detailed in Table 2.
Real-time image capture (5 frames per second) of the stenosis continued throughout treatment perfusion.
Data Analysis: The thrombi surface area (which was colored green) was calculated using manual pixel counting in the open-source GNU Image Manipulation Program (GIMP, Version 2.10.8, 1995-2018). Surface area reduction was calculated by % pixel reduction versus the occlusion image. Analysis of variance (ANOVA) was used to test for statistical differences between groups, with the significance set at p<0.05.
In this example, a stenotic capillary tube model, which potentiates VWF- and platelet-rich white thrombi in an arterial setting on a collagen-coated stenosis was used (Para, A., Bark, D., Lin, A. & Ku, D. Rapid platelet accumulation leading to thrombotic occlusion. Ann Biomed Eng 39, 1961-1971, 2011; Ku, D. N. & Flannery, C. J. Development of a flow-through system to create occluding thrombus. Biorheology 44, 273-284, 2007; Para, A. N. & Ku, D. N. A low-volume, single pass in-vitro system of high shear thrombosis in a stenosis. Thromb Res 131, 418-424, 2013) to test lysis of 90% occlusive white thrombi (FIG. 2) and perfused low (2 mM) and high (20 mM) concentrations of NAC and DiNAC solutions. As illustrated in FIG. 2. DiNAC, but not NAC, achieved thrombolysis over 60 minutes of perfusion (FIG. 3A-3D). 2 mM and 20 mM DiNAC lysed most of the thrombi (>95%) within 14 min and 1.5 min, respectively (FIG. 3A-3B).

white clots = experiment: Example 3: thrombolytic activity on white clots, procedures of Examples 1 and 2; format: cell-based, Porcine; conditions: DiNAC: clot breakup over 10 minutes; comparators at 1 hour
Description: In this example, use of DiNAC and other agents as anti-thrombotic agents was tested. A white clot formation in the artery system was modeled by a collagen coated glass capillary tube (Ku DN, Flannery CJ. Development of a flow-through system to create occluding thrombus, Biorheology, 2007; 44(4)273-84). Porcine blood was perfused into the capillary tube using a constant pressure head or a constant flow rate (Para AN, Ku DN. A low-volume, single pass in vitro system of high shear thrombosis in a stenosis, Thrombosis Research, 2013, 131(5):418-24). After clot formation, a thrombolytic agent was perfused into the capillary tube. The detailed capillary tube experimental protocol is summarized below.
In this example, the thrombolytic activity of DiNAC and other lytic agents was tested, using the procedures described in Examples 1 and 2.

[4] = test system: fibrin clots from recalcified platelet rich plasma (PRP); experiment: Red clot lysis under stagnant conditions, PRP clots; format: cell-based, Porcine; conditions: 48 h, DiNAC and NAC at 2 mM
Excerpt: as §1, §2

pH of DiNAC solution = format: physicochemical
Description: as §3
To confirm the efficacy of DiNAC, the dose response was tested at increasing concentrations of 0.02, 0.2, 2, and 20 mM. The thrombus area reduction was dependent on the concentration of DiNAC (FIG. 4). […] Considering the practical use of the DiNAC as a thrombolytic in a clinical setting, the 20 mM DiNAC with sodium bicarbonate to a final pH=7. Neutralization of 20 mM DiNAC reduced the variance from 47% to 12% in surface area reduction (44±47% vs 59±12%, p=0.77, FIG. 4).

FeCl-induced thrombi = conditions: NAC treatment alone, in vivo mice model; cited from earlier work
[5] = test system: FeCl3 injury-induced thrombus; parameters: dose or concentration left out as unconfirmed; conditions: after a 60 min treatment; FeCl3 injury in vivo; ADAMTS-13; cited from earlier work

CC(=O)N[C@@H](CSSC[C@H](NC(C)=O)C(=O)O)C(=O)O [DiNAC, N,N′-diacetyl-cystine]
whole blood clot lysis over 48 h [1]: no effect on red clots
time to complete lysis of the white clot ([2]; 20 mM perfusion): ≤ 10 min
thrombus area vs control ([3]; 0.02 mM, 60 min perfusion): not significantly different from the control
thrombus area reduction ([3]; 0.2 mM, 60 min perfusion): 46±15%
thrombus surface area reduction ([3]; 20 mM acidic solution (not neutralized), 60 min perfusion): 44±47%
thrombus surface area reduction ([3]; 20 mM neutralized with sodium bicarbonate to pH=7, 60 min perfusion): 59±12%
thrombolytic activity on white clots (white clots): highly effective at causing lysis of white clots
PRP clot lysis over 48 h [4]: no effect on red clots
pH of solution (pH of DiNAC solution; 2 mM solution): 7
pH of solution (pH of DiNAC solution; 20 mM solution): 2

CC(=O)N[C@@H](CS)C(=O)O [NAC, N-acetylcysteine, reference compound]
whole blood clot lysis over 48 h [1]: no effect on red clots
reperfusion (FeCl-induced thrombi): < 40%
lysis on perfusion ([3]; 2 mM and 20 mM, 60 min perfusion): minimal lysis
thrombus surface area reduction ([3]; 2 mM, 60 min perfusion): < 20%
lysis after 60 min perfusion ([3]; 20 mM, 60 min): minimal lysis
thrombolytic activity on white clots (white clots): minimal effects with no perfusion at 1 hour
PRP clot lysis over 48 h [4]: no effect on red clots

B1: Abciximab: inhibits platelet thrombus formation by blocking the glycoprotein IIb/IIIa through an antibody (antibody, chains of the INN, looked up, V domains shown)
VH: EVQLQQSGTVLARPGASVKMSCEASGYTFTNYWMHWVKQRPGQGLEWIGAIYPGNSDTSYIQKFKGKAKLTAVTSTTSVYMELSSLTNEDSAVYYCTLYDGYYVFAYWGQGTLVTVSA
VL: EIVLTQSPVTLSVTPGDSVSLSCRASRDISNNLHWFQQTSHESPRLLIKYASQSMSGIPSRFSGSGSGTDFTLSINSVETEDFGMYFCQQTNSWPYTFGGGTKLEIK
modifications: Fab
reduction in thrombus area ([3]; […] (Table 2), 60 min perfusion): 22±11%
thrombolytic activity on white clots (white clots): minimal effects with no perfusion at 1 hour

B2: ADAMTS-13: recombinant human ADAMTS-13, a protease that cleaves VWF (protein, UniProt Q76LX8 75-1427, looked up)
A disintegrin and …: AAGGILHLELLVAVGPDVFQAHQEDTERYVLTNLNIGAELLRDPSLGAQFRVHLVKMVILTEPEGAPNITANLTSSLLSVCGWSQTINPEDDTDPGHADLVLYITRFDLELPDGNRQVRGVTQLGGACSPTWSCLITEDTGFDLGVTIAHEIGHSFGLEHDGAPGSGCGPSGHVMASDGAAPRAGLAWSPCSRRQLLSLLSAGRARCVWDPPRPQPGSAGHPPDAQPGLYYSANEQCRVAFGPKAVACTFAREHLDMCQALSCHTDPLDQSSCSRLLVPLLDGTECGVEKWCSKGRCRSLVELTPIAAVHGRWSSWGPRSPCSRSCGGGVVTRRRQCNNPRPAFGGRACVGADLQAEMCNTQACEKTQLEFMSQQCARTDGQPLRSSPGGASFYHWGAAVPHSQGDALCRHMCRAIGESFIMKRGDSFLDGTRCMPSGPREDGTLSLCVSGSCRTFGCDGRMDSQQVWDRCQVCGGDNSTCSPRKGSFTAGRAREYVTFLTVTPNLTSVYIANHRPLFTHLAVRIGGRYVVAGKMSISPNTTYPSLLEDGRVEYRVALTEDRLPRLEEIRIWGPLQEDADIQVYRRYGEEYGNLTRPDITFTYFQPKPRQAWVWAAVRGPCSVSCGAGLRWVNYSCLDQARKELVETVQCQGSQQPPAWPEACVLEPCPPYWAVGDFGPCSASCGGGLRERPVRCVEAQGSLLKTLPPARCRAGAQQPAVALETCNPQPCPARWEVSEPSSCTSAGGAGLALENETCVPGADGLEAPVTEGPGSVDEKLPAPEPCVGMSCPPGWGHLDATSAGEKAPSPWGSIRTGAQAAHVWTPAAGSCSVSCGRGLMELRFLCMDSALRVPVQEELCGLASKPGSRREVCQAVPCPARWQYKLAACSVSCGRGVVRRILYCARAHGEDDGEEILLDTQCQGLPRPEPQEACSLEPCPPRWKVMSLGPCSASCGLGTARRSVACVQLDQGQDVEVDEAACAALVRPEASVPCLIADCTYRWHVGTWMECSVSCGDGIQRRRDTCLGPQAQAPVPADFCQHLPKPVTVRGCWAGPCVGQGTPSLVPHEEAAAPGRTTATPAGASLEWSQARGLLFSPAPQPRRLLPGPQENSVQSSACGRQHLEPTGTIDMRGPGQADCAVAIGRPLGEVVTLRVLESSLNCSAGDMLLLWGRLTWRKMCRKLLDMTFSSKTNTLVVRQRCGRPGGGVLLRYGSQLAPETFYRECDMQLFGPWGEIVSPSLSPATSNAGGCRLFINVAPHARIAIHALATNMGAGTEGANASYILIRDTHSLRTTAFHGQQVLYWESESSQAEMEFSEGFLKAQASLRGQYWTLQSWVPEMQDPQSWKGKEGT
whole blood clot lysis over 48 h [1]: no effect on red clots
effect on clots and flow ([2]; perfusion): did not alter the clots or restore flow
thrombus area reduction ([3]; 1 g/mL (Table 2), 60 min perfusion): 19±8%
thrombolytic activity on white clots (white clots): minimal effects with no perfusion at 1 hour
PRP clot lysis over 48 h [4]: no effect on red clots
reduction of thrombus size [5]: 62.3%
